We go through 12 compounds from ChEMBL document CHEMBL3751815, “Sulfonamides incorporating heteropolycyclic scaffolds show potent inhibitory action against carbonic anhydrase isoforms I, II, IX and XII” (Bioorg Med Chem, 2016).

Usually Ki stands for the dissociation constant of the complex between target and ligand, obtained from inhibition or displacement.

The assay has as its target Carbonic anhydrase 9 (Homo sapiens, UniProt Q16790). As to the kind of experiment: Inhibition of recombinant human carbonic anhydrase 9 preincubated for 15 mins by stopped-flow CO2 hydration assay.
Consider `COc1ccc2c(c1)SCc1cnc(Nc3ccc(S(N)(=O)=O)cc3)nc1-2`, for which the Ki was 0.0225 µM. For the compound `Cc1ccc2c(c1)NCc1cn(-c3ccc(S(N)(=O)=O)cc3)nc1-2`, the Ki is 0.0077 µM.

Consider `CN(CC(=O)O)c1ccc2c(c1)-c1cccnc1SC2`, for which the Ki was determined as 0.0678 µM. The same measure for `COc1ccc2c(c1)SCc1ccc(N(C)CC(=O)O)cc1-2`: 0.0408 µM.

Turning to `Cc1ccc2c(n1)SCc1ccc(N(C)CC(=O)O)cc1-2`, the Ki is 0.0927 µM. With `NS(=O)(=O)c1ccc(Nc2ncc3c(n2)-c2cccnc2SC3)cc1` the figure was 0.0276 µM.

As for `NS(=O)(=O)c1ccc(-n2cc3c(n2)-c2ccc(Cl)cc2SC3)cc1`, the Ki turned out to be 0.0061 µM.

As to `COc1ccc2c(c1)SCc1cn(-c3ccc(S(N)(=O)=O)cc3)nc1-2`, the Ki is 0.0074 µM. The same measure for `NS(=O)(=O)c1ccc(Nc2ncc3c(n2)-c2ccc(Cl)cc2SC3)cc1`: 0.0087 µM. The same measure for `NS(=O)(=O)c1ccc(-n2cc3c(n2)-c2ccccc2NC3)cc1`: 0.0063 µM; for `COc1ccc2c(c1)SCc1ccc(NCC(=O)O)cc1-2`: 0.0541 µM.

`NS(=O)(=O)c1ccc(Nc2ncc3c(n2)-c2ccccc2SC3)cc1`: the inhibitory constant (Ki) was found to be 0.007 µM.
